Assays:
neuromuscular blockade = experiment: Reversibility of neuromuscular blockade effects by administration of thiol compounds; format: in vivo; conditions: administration of thiol compounds such as cysteine (L or D) or glutathione
rats = experiment: L-cysteine toxicology in rats; format: in vivo; conditions: conscious rats; bolus injections of 750 mg/kg intravenously
From the text: This Example describes toxicology studies performed using FDA guidelines.

[1] = tested on: neuromuscular blockade produced by CW002; conditions: previous study (Sunaga et al.); cited from earlier work
[2] = tested on: anesthetized male beagles; conditions: 100 mg/kg; previous work by the inventors; cited from earlier work
[3] = Natural pH, solubility and precipitation of cysteine solutions (general statements); format: physicochemical
[4] = tested on: neuromuscular blockade produced by CW002; experiment: Reversal of CW002 neuromuscular blockade (recovery of muscle twitch) by cysteine in anesthetized beagles; format: in vivo; conditions: 0.08 mg/kg CW002, cysteine given 1 minute after CW002
Description: Three anesthetized male beagles received CW002. After 1 minute and complete loss of muscle twitch, D-cysteine was administered at dosages of 10, 20, 50 or 100 mg/kg. Each dose was given as a single experiment separated from other experiments by at least 7 days. The rate and time to complete recovery of muscle twitch in each animal was determined.

COc1ccc(CC2c3cc(OC)c(OC)cc3CC[N+]2(C)CCCOC(=O)/C=C/C(=O)OCCC[N+]2(C)CCc3cc(OC)c(OC)cc3C2Cc2ccc(OC)c(OC)c2)cc1OC (centres unmarked) [CW002]
Reversibility of neuromuscular blockade effects by thiol compounds (neuromuscular blockade): reversible

COc1ccc(C[C@@H]2c3cc(OC)c(OC)cc3CC[N@@+]2(C)CCCOC(=O)/C=C\C(=O)OCCC[N@+]2(C)CCc3cc(OC)c(OC)cc3[C@H]2Cc2cc(OC)c(OC)c(OC)c2)cc1OC [CW 011]
Reversibility of neuromuscular blockade effects by thiol compounds (neuromuscular blockade): reversible

N[C@@H](CS)C(=O)O [L-cysteine]
Clinical, biochemical, or histological evidence of organ toxicity (rats): No animals exhibited clinical, biochemical, or histological evidence of organ toxicity
Dose range effective for reversal of CW002 (previously described) [1]: 30 to 50 mg/kg
Effect on blood pressure (previous work) [2]: modest increase in blood pressure

N[C@@H](CS)C(=O)O [cysteine]
solubility ([3]; base form, read-out: Solubility of cysteine in its base form): ≤ 50 mg/mL
Precipitation of cysteine solutions adjusted with sodium hydroxide ([3]; pH values above 3): rapid cystine precipitation

N[C@H](CS)C(=O)O [D-cysteine]
Dose range effective for reversal of CW002 [4]: 30 to 50 mg/kg

— patent publication US9220700B2, “Cysteine for physiological injection” (Cornell University, priority 2009, dated 2015)
